Data: ChEMBL document CHEMBL4152332, “Discovery and synthesis of novel magnolol derivatives with potent anticancer activity in non-small cell lung cancer” (Eur J Med Chem, 2018)
Converted amounts (≈) assume the structure as drawn.

Key:
NCI-H1975 [1] = assay: Induction of apoptosis in human NCI-H1975 cells assessed as late apoptotic cells at 20 uM after 48 hrs by annexin V/FITC-propidium iodide staining-based flow cytometric method ( Rvb = 10.4%); format: functional
NCI-H1975 [2] = assay: Induction of apoptosis in human NCI-H1975 cells assessed as necrotic cells at 20 uM after 48 hrs by annexin V/FITC-propidium iodide staining-based flow cytometric method ( Rvb = 1.01%); format: functional
NCI-H1975 [3] = assay: Cell cycle arrest in human NCI-H1975 cells assessed as reduction in accumulation at G2/M phase after 24 hrs by propidium iodide staining-based flow cytometric analysis; format: functional
[4] = Apparent aqueous solubility of the compound by HPLC analysis; format: physicochemical; conditions: aqueous solution
NCI-H1975 [5] = assay: Induction of apoptosis in human NCI-H1975 cells assessed as early apoptotic cells at 10 uM after 48 hrs by annexin V/FITC-propidium iodide staining-based flow cytometric method ( Rvb = 6.09%); format: functional
NCI-H1650 = assay: Antiproliferative activity against human NCI-H1650 cells after 72 hrs by MTT assay; format: functional, cell-based; conditions: NCI-H1650, 72 h
NCI-H1975 [6] = assay: Cell cycle arrest in human NCI-H1975 cells assessed as accumulation at G0/G1 phase at 20 uM after 24 hrs by propidium iodide staining-based flow cytometric analysis (reference value: 56.11%); format: functional
NCI-H1975 [7] = assay: Induction of apoptosis in human NCI-H1975 cells assessed as necrotic cells at 5 uM after 48 hrs by annexin V/FITC-propidium iodide staining-based flow cytometric method ( Rvb = 1.01%); format: functional
NCI-H1975 [8] = assay: Antiproliferative activity against human NCI-H1975 cells after 72 hrs by MTT assay; format: functional, cell-based; conditions: NCI-H1975, 72 h
NCI-H1975 [9] = assay: Induction of apoptosis in human NCI-H1975 cells assessed as early apoptotic cells at 5 uM after 48 hrs by annexin V/FITC-propidium iodide staining-based flow cytometric method ( Rvb = 6.09%); format: functional
NCI-H1975 [10] = assay: Induction of apoptosis in human NCI-H1975 cells assessed as late apoptotic cells at 5 uM after 48 hrs by annexin V/FITC-propidium iodide staining-based flow cytometric method ( Rvb = 10.4%); format: functional
NCI-H460 [11] = assay: Potency index, ratio of IC50 for honokiol to IC50 for test compound for antiproliferative activity against human H460 cells after 72 hrs by MTT assay; format: functional
NCI-H1975 [12] = assay: Cell cycle arrest in human NCI-H1975 cells assessed as increase in accumulation at G0/G1 phase after 24 hrs by propidium iodide staining-based flow cytometric analysis; format: functional
HUVEC = assay: Antimigratory activity against HUVEC after 24 to 48 hrs by phase contrast/fluorescence microscopic analysis; format: functional, cell-based; conditions: Homo sapiens
NCI-H1975 [13] = assay: Induction of apoptosis in human NCI-H1975 cells assessed as necrotic cells at 10 uM after 48 hrs by annexin V/FITC-propidium iodide staining-based flow cytometric method ( Rvb = 1.01%); format: functional
NCI-H1975 [14] = assay: Induction of apoptosis in human NCI-H1975 cells assessed as viable cells at 20 uM after 48 hrs by annexin V/FITC-propidium iodide staining-based flow cytometric method ( Rvb = 82.5%); format: functional; conditions: NCI-H1975, 48 h, read-out: Activity
A549 = assay: Antiproliferative activity against human A549 cells after 72 hrs by MTT assay; format: functional, cell-based; conditions: A549, 72 h
NCI-H1975 [15] = assay: Cell cycle arrest in human NCI-H1975 cells assessed as reduction in accumulation at S phase after 24 hrs by propidium iodide staining-based flow cytometric analysis; format: functional
NCI-H1975 [16] = assay: Cell cycle arrest in human NCI-H1975 cells assessed as accumulation at G2/M phase at 5 uM after 24 hrs by propidium iodide staining-based flow cytometric analysis (reference value: 20.11%); format: functional
NCI-H1975 [17] = assay: Cell cycle arrest in human NCI-H1975 cells assessed as accumulation at S phase at 5 uM after 24 hrs by propidium iodide staining-based flow cytometric analysis (reference value: 22.93%); format: functional
NCI-H1975 [18] = assay: Cell cycle arrest in human NCI-H1975 cells assessed as accumulation at S phase at 10 uM after 24 hrs by propidium iodide staining-based flow cytometric analysis (reference value: 22.93%); format: functional
NCI-H460 [19] = assay: Antiproliferative activity against human H460 cells after 72 hrs by MTT assay; format: functional, cell-based; conditions: NCI-H460, 72 h
Mus musculus = assay: Toxicity in Balb/c mouse implanted with mouse C26 cells assessed as reduction in body weight at 100 mg/kg, po qd treated for 10 days and measured every 2 days; format: organism-based; conditions: in vivo
NCI-H441 = assay: Antiproliferative activity against human H441 cells after 72 hrs by MTT assay; format: functional, cell-based; conditions: NCI-H441, 72 h
HCC827 [20] = assay: Antiproliferative activity against human HCC827 cells after 72 hrs by MTT assay; format: functional, cell-based; conditions: HCC827, 72 h
NCI-H1975 [21] = assay: Potency index, ratio of IC50 for honokiol to IC50 for test compound for antiproliferative activity against human NCI-H1975 cells after 72 hrs by MTT assay; format: functional
NCI-H1975 [22] = assay: Induction of apoptosis in human NCI-H1975 cells assessed as viable cells at 10 uM after 48 hrs by annexin V/FITC-propidium iodide staining-based flow cytometric method ( Rvb = 82.5%); format: functional; conditions: NCI-H1975, 48 h, read-out: Activity
PC-9 = assay: Antiproliferative activity against human PC9 cells after 72 hrs by MTT assay; format: functional, cell-based; conditions: PC-9, 72 h
HCC827 [23] = assay: Potency index, ratio of IC50 for honokiol to IC50 for test compound for antiproliferative activity against human HCC827 cells after 72 hrs by MTT assay; format: functional
[24] = Antiproliferative activity against human SPC-A1 cells after 72 hrs by MTT assay; format: functional, cell-based; conditions: SPCA1, 72 h
NCI-H1975 [25] = assay: Induction of apoptosis in human NCI-H1975 cells after 48 hrs by annexin V/FITC-propidium iodide staining-based flow cytometric method; format: functional, cell-based
NCI-H1975 [26] = assay: Cell cycle arrest in human NCI-H1975 cells assessed as accumulation at S phase at 20 uM after 24 hrs by propidium iodide staining-based flow cytometric analysis (reference value: 22.93%); format: functional
NCI-H1975 [27] = assay: Potency index, ratio of IC50 for magnolol to IC50 for test compound for antiproliferative activity against human NCI-H1975 cells after 72 hrs by MTT assay; format: functional
NCI-H1975 [28] = assay: Cell cycle arrest in human NCI-H1975 cells assessed as accumulation at G2/M phase at 10 uM after 24 hrs by propidium iodide staining-based flow cytometric analysis (reference value: 20.11%); format: functional
HCC827 [29] = assay: Potency index, ratio of IC50 for magnolol to IC50 for test compound for antiproliferative activity against human HCC827 cells after 72 hrs by MTT assay; format: functional
NCI-H358 = assay: Antiproliferative activity against human NCI-H358 cells after 72 hrs by MTT assay; format: functional, cell-based; conditions: NCI-H358, 72 h
NCI-H1975 [30] = assay: Induction of apoptosis in human NCI-H1975 cells assessed as late apoptotic cells at 10 uM after 48 hrs by annexin V/FITC-propidium iodide staining-based flow cytometric method ( Rvb = 10.4%); format: functional
NCI-H1975 [31] = assay: Cell cycle arrest in human NCI-H1975 cells assessed as accumulation at G2/M phase at 20 uM after 24 hrs by propidium iodide staining-based flow cytometric analysis (reference value: 20.11%); format: functional
NCI-H1975 [32] = assay: Induction of apoptosis in human NCI-H1975 cells assessed as early apoptotic cells at 20 uM after 48 hrs by annexin V/FITC-propidium iodide staining-based flow cytometric method ( Rvb = 6.09%); format: functional
NCI-H1975 [33] = assay: Cell cycle arrest in human NCI-H1975 cells assessed as accumulation at G0/G1 phase at 5 uM after 24 hrs by propidium iodide staining-based flow cytometric analysis (reference value: 56.11%); format: functional
NCI-H1975 [34] = assay: Induction of apoptosis in human NCI-H1975 cells assessed as viable cells at 5 uM after 48 hrs by annexin V/FITC-propidium iodide staining-based flow cytometric method ( Rvb = 82.5%); format: functional; conditions: NCI-H1975, 48 h, read-out: Activity
NCI-H1975 [35] = assay: Cell cycle arrest in human NCI-H1975 cells assessed as accumulation at G0/G1 phase at 10 uM after 24 hrs by propidium iodide staining-based flow cytometric analysis (reference value: 56.11%); format: functional
NCI-H460 [36] = assay: Potency index, ratio of IC50 for magnolol to IC50 for test compound for antiproliferative activity against human H460 cells after 72 hrs by MTT assay; format: functional

solubility [4]: 4080 µg/mL (≈ 10.8 mM) | IC50 (NCI-H1650): 6.93 µM | IC50 (NCI-H1975 [8]): 4.82 µM | IC50 (A549): 7.46 µM | IC50 (NCI-H460 [19]): 5.71 µM | IC50 (NCI-H441): 7.48 µM | IC50 (HCC827 [20]): 4.87 µM | IC50 (PC-9): 11.4 µM | IC50 (NCI-H358): 9.51 µM
Structure (SMILES): C=CCc1ccc(O)c(-c2cc(CC=C)cc(CN3CCCC(N)C3)c2O)c1 (stereo not drawn)
Activity (NCI-H1975 [1]): 57% | Activity (NCI-H1975 [2]): 0.38% | Activity (NCI-H1975 [3]): Dose-dependent effect | Activity (NCI-H1975 [5]): 6.45% | Activity (NCI-H1975 [6]): 79.88% | Activity (NCI-H1975 [7]): 0.74% | Activity (NCI-H1975 [9]): 7.56% | Activity (NCI-H1975 [10]): 22.5% | Ratio IC50 (NCI-H460 [11]): 4 | Activity (NCI-H1975 [12]): Dose-dependent effect | Activity (HUVEC): Dose-dependent effect | Activity (NCI-H1975 [13]): 0.65% | viability at 20 µM (NCI-H1975 [14]): 2.02% | Activity (NCI-H1975 [15]): Dose-dependent effect | Activity (NCI-H1975 [16]): 16.05% | Activity (NCI-H1975 [17]): 16.29% | Activity (NCI-H1975 [18]): 9.26% | Activity (Mus musculus): Toxic | Ratio IC50 (NCI-H1975 [21]): 4 | viability at 10 µM (NCI-H1975 [22]): 64.6% | Ratio IC50 (HCC827 [23]): 4 | IC50 [24]: 8.43 µM | Activity (NCI-H1975 [25]): Dose-dependent effect | Activity (NCI-H1975 [26]): 4.75% | Ratio IC50 (NCI-H1975 [27]): 8 | Activity (NCI-H1975 [28]): 18.21% | Ratio IC50 (HCC827 [29]): 8 | Activity (NCI-H1975 [30]): 28.3% | Activity (NCI-H1975 [31]): 13.83% | Activity (NCI-H1975 [32]): 40.6% | Activity (NCI-H1975 [33]): 65.67% | viability at 5 µM (NCI-H1975 [34]): 69.2% | Activity (NCI-H1975 [35]): 70.32% | Ratio IC50 (NCI-H460 [36]): 8
